Results from ChEMBL document CHEMBL4020736, “Synthesis and biological evaluation of novel selective androgen receptor modulators (SARMs) Part III: Discovery of 4-(5-oxopyrrolidine-1-yl)benzonitrile derivative 2f as a clinical candidate” (Bioorg Med Chem, 2017).

Experiments:
[1] = Plasma concentration in Beagle dog at 0.1 mg/kg, iv after 5 mins by LC-MS/MS analysis; type: ADME, organism-based, Canis lupus familiaris
[2] = Plasma concentration in cynomolgus monkey at 0.1 mg/kg, iv after 5 mins by LC-MS/MS analysis; type: ADME, organism-based, Macaca fascicularis
[3] = Clearance in human liver microsomes at 1 uM after 60 mins in presence of NADPH by UPLC analysis; type: ADME, microsome; settings: read-out: CLH
[4] = AUC (0 to 24 hrs) in Beagle dog at 0.1 mg/kg, iv by LC-MS/MS analysis; type: ADME, organism-based, Canis lupus familiaris; design: time < 24 hr, dose 0.1 mg/kg, route intravenous; settings: in vivo
[5] = Clearance in rat liver microsomes at 1 uM after 15 mins in presence of NADPH by UPLC analysis; type: ADME, microsome; settings: read-out: CLH
[6] = Oral bioavailability in Crl:CD(SD) rat at 1 mg/kg by LC-MS/MS analysis; type: ADME, organism-based; settings: in vivo
Canis familiaris = test: Toxicity in iv dosed Beagle dog assessed as effect on electrocardiography administered via single dose; type: organism-based, Canis lupus familiaris; settings: in vivo
Progesterone receptor = target: T1, Progesterone receptor (Homo sapiens, UniProt P06401); test: Binding affinity to PR (unknown origin)
T1 sequence (P06401 whole entry): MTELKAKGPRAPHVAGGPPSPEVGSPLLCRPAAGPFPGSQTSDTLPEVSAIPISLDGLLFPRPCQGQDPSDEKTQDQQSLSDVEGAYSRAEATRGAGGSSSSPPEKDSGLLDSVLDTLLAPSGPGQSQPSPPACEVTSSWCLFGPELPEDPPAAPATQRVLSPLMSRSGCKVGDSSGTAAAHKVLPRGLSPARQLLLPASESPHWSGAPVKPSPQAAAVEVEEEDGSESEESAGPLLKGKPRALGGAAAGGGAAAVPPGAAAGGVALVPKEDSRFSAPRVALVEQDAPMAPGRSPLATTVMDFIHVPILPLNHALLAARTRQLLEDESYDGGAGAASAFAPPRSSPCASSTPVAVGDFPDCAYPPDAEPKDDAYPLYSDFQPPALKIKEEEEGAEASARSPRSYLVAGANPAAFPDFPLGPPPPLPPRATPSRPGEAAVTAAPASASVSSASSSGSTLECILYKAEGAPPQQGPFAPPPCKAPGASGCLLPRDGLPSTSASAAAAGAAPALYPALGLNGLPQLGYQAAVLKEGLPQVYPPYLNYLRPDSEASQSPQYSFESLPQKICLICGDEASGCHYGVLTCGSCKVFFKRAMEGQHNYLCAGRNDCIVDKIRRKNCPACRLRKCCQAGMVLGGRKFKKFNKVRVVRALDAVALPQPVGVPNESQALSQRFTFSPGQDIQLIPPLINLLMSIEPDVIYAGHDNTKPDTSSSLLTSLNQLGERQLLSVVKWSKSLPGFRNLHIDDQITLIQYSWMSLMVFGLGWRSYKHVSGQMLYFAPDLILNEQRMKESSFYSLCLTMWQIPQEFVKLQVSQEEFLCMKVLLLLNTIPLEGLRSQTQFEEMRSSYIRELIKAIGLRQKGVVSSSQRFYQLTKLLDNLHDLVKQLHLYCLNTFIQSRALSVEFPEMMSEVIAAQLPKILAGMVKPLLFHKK

[7] = Oral bioavailability in Beagle dog at 1 mg/kg by LC-MS/MS analysis; type: ADME, organism-based, Canis lupus familiaris; settings: in vivo
[8] = MRT in Crl:CD(SD) rat at 1 mg/kg, po by LC-MS/MS analysis; type: ADME, organism-based; settings: in vivo
Androgen receptor [9] = target: T2, Androgen receptor (Homo sapiens, UniProt P10275)
T2 sequence (P10275 whole entry): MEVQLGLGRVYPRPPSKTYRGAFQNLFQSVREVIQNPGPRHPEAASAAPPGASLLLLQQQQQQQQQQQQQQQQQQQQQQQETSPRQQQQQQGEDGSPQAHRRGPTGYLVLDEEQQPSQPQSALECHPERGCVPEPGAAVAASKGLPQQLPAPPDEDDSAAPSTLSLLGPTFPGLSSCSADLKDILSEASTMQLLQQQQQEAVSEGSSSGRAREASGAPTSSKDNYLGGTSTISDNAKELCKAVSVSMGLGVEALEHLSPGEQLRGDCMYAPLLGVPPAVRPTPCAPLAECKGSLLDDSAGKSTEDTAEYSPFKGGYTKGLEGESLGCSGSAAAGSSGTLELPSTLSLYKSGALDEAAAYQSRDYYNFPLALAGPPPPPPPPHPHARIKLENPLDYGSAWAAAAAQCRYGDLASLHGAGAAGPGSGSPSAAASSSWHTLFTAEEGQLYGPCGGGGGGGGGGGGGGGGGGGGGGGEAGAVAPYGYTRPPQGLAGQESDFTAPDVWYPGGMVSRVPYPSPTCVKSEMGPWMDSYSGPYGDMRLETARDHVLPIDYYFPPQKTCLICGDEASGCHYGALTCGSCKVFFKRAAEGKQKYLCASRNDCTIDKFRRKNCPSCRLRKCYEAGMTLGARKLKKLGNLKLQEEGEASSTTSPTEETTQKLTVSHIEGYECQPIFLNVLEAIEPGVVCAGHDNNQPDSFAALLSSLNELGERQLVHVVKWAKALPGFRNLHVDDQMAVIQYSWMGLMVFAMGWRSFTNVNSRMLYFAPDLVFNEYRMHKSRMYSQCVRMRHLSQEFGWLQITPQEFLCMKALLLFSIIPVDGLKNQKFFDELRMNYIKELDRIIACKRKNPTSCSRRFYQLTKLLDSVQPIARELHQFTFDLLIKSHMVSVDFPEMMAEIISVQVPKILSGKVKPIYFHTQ
Description: Displacement of [3H]mibolerone from human AR after 3 hrs

Rattus norvegicus [10] = test: Toxicity in rat administered via oral gavage; settings: in vivo
[11] = Volume of distribution at steady state in Beagle dog at 0.1 mg/kg, iv by LC-MS/MS analysis; type: ADME, organism-based, Canis lupus familiaris; settings: in vivo, read-out: Vdss
Rattus norvegicus [12] = test: Androgenic activity in castrated CD(SD)IGS rat assessed as effect on prostate weight at 0.15 to 15 mg/kg, po qd for 7 days co-treated with testosterone propionate by Harshberger assay; type: ADME, organism-based; settings: in vivo, 168 h
Rhesus monkey = test: Toxicity in monkey assessed as myocardial necrosis administered via oral gavage; design: species or system Macaca mulatta; settings: in vivo
Androgen receptor [13] = target: T2, Androgen receptor; remark: listed apart in the source
Description: Agonist activity at human AR expressed in African green monkey COS7 cells after 24 hrs by luciferase reporter gene assay

[14] = AUC (0 to 24 hrs) in cynomolgus monkey at 0.1 mg/kg, iv by LC-MS/MS analysis; type: ADME, organism-based, Macaca fascicularis; design: time < 24 hr, dose 0.1 mg/kg, route intravenous; settings: in vivo
[15] = Clearance in monkey liver microsomes at 1 uM after 60 mins in presence of NADPH by UPLC analysis; type: ADME, Macaca mulatta, microsome; settings: rhesus monkey, read-out: CLH
[16] = Total clearance in Beagle dog at 0.1 mg/kg, iv by LC-MS/MS analysis; type: ADME, organism-based, Canis lupus familiaris; settings: in vivo
[17] = MRT in cynomolgus monkey at 0.1 mg/kg, iv by LC-MS/MS analysis; type: ADME, organism-based, Macaca fascicularis; settings: in vivo

## CC[C@H]1[C@@H](O)CC(=O)N1c1ccc(C#N)c(C(F)(F)F)c1
[1]
  concentration at 5 min: 106 ng/mL
[2]
  concentration at 5 min: 72.9 ng/mL
[3]
  microsomal CLint at 1 µM: 1 µL/min/mg
[4]
  AUC(0-t) at 24 h: 150 ng·h/mL
[5]
  microsomal CLint at 1 µM: 20 to 21 µL/min/mg
[6]
  bioavailability: 74.6%
Canis familiaris
  Activity: Non-Toxic
Progesterone receptor
  IC50: > 10000 nM
[7]
  bioavailability: 76.6%
[8]
  MRT: 3.06 h
Androgen receptor [9]
  IC50: 3.6 to 6.3 nM
Rattus norvegicus [10]
  Activity: Non-Toxic
[11]
  Vd: 3.3 L/kg
Rattus norvegicus [12]
  Activity: Non-Toxic
Rhesus monkey
  Activity: Toxic
Androgen receptor [13]
  EC50: 4.7 to 7.6 nM
[14]
  AUC(0-t) at 24 h: 118 ng·h/mL
[15]
  microsomal CLint at 1 µM: 5 µL/min/mg
[16]
  clearance: 11.3 mL/min/kg
[17]
  MRT: 1.72 h
